Each structure is given as a SMILES string.

We go through two compounds from US20120207835A1, “BROAD-SPECTRUM BIOCIDE COMPOSITIONS AND A METHOD FOR THEIR PREPARATION” (BROMINE COMPOUNDS LTD., priority 2009, published 2012).

For data set [1] the following is noted: room temperature; cited from earlier work.
Data set [2] has as its system A. niger. The data set can be described thus: Agar plate test: diameter of the A. niger growth ring after contact with biocide matrix. Type of data set: cell-based. Conditions: for A. niger diameters (cm), 3 days: day 3; for A. niger diameters (cm), 7 days: day 7; for A. niger diameters (cm), 14 days: day 14; for A. niger diameters (cm), 21 days: day 21; for A. niger diameters (cm), 28 days: day 28. As for the experimental part:
Samples of the prepared materials were dispersed in hot (˜45° C.) agar, under stirring. […] Pure DBNPA and commercial biocide (OTW) were used as standards. All the results were duplicated to assure accuracy.

Where [3] appears, read: 300 ppm in agar (column DBNPA in agar, ppm), inoculum plug ID 1 cm.
Where [4] appears, read: 300 ppm in agar, inoculum plug ID 1 cm.

As to `N#CC(Br)(Br)C(N)=O` [DBNPA, 2,2-dibromo-3-nitrilopropionamide], the “time to loss of activity by decomposition in aqueous media” value in data set [1] is 2 to 3 days. Also, in data set [2], the “concentration at which activity is demonstrated” value was greater than 1000 ppm. Also, the “time over which activity is lost” value in data set [2] (300 ppm DBNPA) came to 3 days. Also, the “A. niger diameters (cm), 3 days” value in data set [2] (setting [3]) is on record as 3.7 cm. In addition, in data set [2] (setting [4]), the “A. niger diameters (cm), 7 days” value is reported as 10 cm; the “A. niger diameters (cm), 14 days” value was determined as 10 cm; the “A. niger diameters (cm), 21 days” value was 10 cm; the “A. niger diameters (cm), 28 days” value was determined as 10 cm. For the same compound, in data set [2] (1000 ppm DBNPA in agar), the “A. niger diameters (cm), 3 days” value worked out at 1 cm; the “A. niger diameters (cm), 7 days” value is reported as 1 cm; the “A. niger diameters (cm), 14 days” value was 1 cm; the “A. niger diameters (cm), 21 days” value was determined as 1 cm. In data set [2] (1000 ppm DBNPA in agar), the “A. niger diameters (cm), 28 days” value is given as 1 cm.

On to `CCCCCCCCn1sccc1=O` [OTW neat, N-octylisothiazolinone], for which the “A. niger diameters (cm), 3 days” value in data set [2] (setting [3]) was determined as 1 cm. For the same compound, in data set [2] (setting [4]), the “A. niger diameters (cm), 7 days” value stood at 1 cm; the “A. niger diameters (cm), 14 days” value came to 1 cm; the “A. niger diameters (cm), 21 days” value was found to be 1 cm; the “A. niger diameters (cm), 28 days” value is 1 cm.
